Test results: PubChem BioAssay (NCI)
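Results reflect a 48-hour exposure of cells in 96-well plates to compound at five concentrations. TGI marks complete inhibition of growth.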

Assays:
Assay in all cases: NCI tumour cell line growth inhibition, 48 h
SW-620 colon = system: SW-620 colon
KM12 colon = system: KM12 colon
U251 CNS = system: U251 CNS
DMS 114 small cell lung = system: DMS 114 small cell lung
LOX IMVI melanoma = system: LOX IMVI melanoma
UO-31 renal = system: UO-31 renal
NCI/ADR-RES ovarian = system: NCI/ADR-RES ovarian
SF-268 CNS = system: SF-268 CNS
SNB-78 CNS = system: SNB-78 CNS
K-562 leukemia = system: K-562 leukemia
A498 renal = system: A498 renal
HCT-116 colon = system: HCT-116 colon
NCI-H522 lung = system: NCI-H522 lung
HCC-2998 colon = system: HCC-2998 colon
RPMI-8226 leukemia = system: RPMI-8226 leukemia
HOP-92 NSCLC = system: HOP-92 NSCLC
NCI-H23 lung = system: NCI-H23 lung
EKVX NSCLC = system: EKVX NSCLC
CAKI-1 renal = system: CAKI-1 renal
SK-MEL-28 melanoma = system: SK-MEL-28 melanoma
CCRF-CEM leukemia = system: CCRF-CEM leukemia
KM20L2 colon = system: KM20L2 colon
SK-OV-3 ovarian = system: SK-OV-3 ovarian
A549 NSCLC = system: A549 NSCLC
M19-MEL melanoma = system: M19-MEL melanoma
RXF 393 renal = system: RXF 393 renal
OVCAR-8 ovarian = system: OVCAR-8 ovarian
SN12K1 renal = system: SN12K1 renal
HOP-62 NSCLC = system: HOP-62 NSCLC
MOLT-4 leukemia = system: MOLT-4 leukemia
SK-MEL-2 melanoma = system: SK-MEL-2 melanoma
SNB-19 CNS = system: SNB-19 CNS
HOP-18 NSCLC = system: HOP-18 NSCLC
SF-539 CNS = system: SF-539 CNS
SNB-75 CNS = system: SNB-75 CNS
UACC-62 melanoma = system: UACC-62 melanoma
HCT-15 colon = system: HCT-15 colon
COLO 205 colon = system: COLO 205 colon
XF 498 CNS = system: XF 498 CNS
OVCAR-5 ovarian = system: OVCAR-5 ovarian
MALME-3M melanoma = system: MALME-3M melanoma
SN12C renal = system: SN12C renal
P388/ADR leukemia = system: P388/ADR leukemia
HT29 colon = system: HT29 colon
DLD-1 colon = system: DLD-1 colon
NCI-H226 lung = system: NCI-H226 lung
IGROV1 ovarian = system: IGROV1 ovarian
HL-60(TB) leukemia = system: HL-60(TB) leukemia
DMS 273 small cell lung = system: DMS 273 small cell lung

C=C1C(O)C2(O)OCC34C(CC5C(C)=CC(=O)C(O)C5(C)C23)OC(=O)C(OC(=O)C/C=C/CCCCCCCC)C14 (centres undefined)
TGI (SW-620 colon): 47.1 nM
TGI (KM12 colon): 75.1 nM
TGI (U251 CNS): 22.7 nM
TGI (DMS 114 small cell lung): 20.5 nM
TGI (LOX IMVI melanoma): 2000 nM
TGI (UO-31 renal): 231 nM
TGI (NCI/ADR-RES ovarian): 2550 nM
TGI (SF-268 CNS): 35 nM
TGI (SNB-78 CNS): 57 nM
TGI (K-562 leukemia): 251 nM
TGI (A498 renal): 32.4 nM
TGI (HCT-116 colon): 116 nM
TGI (NCI-H522 lung): 20.2 nM
TGI (HCC-2998 colon): 30.8 nM
TGI (RPMI-8226 leukemia): 24.9 nM
TGI (HOP-92 NSCLC): 22.9 nM
TGI (NCI-H23 lung): 81.5 nM
TGI (EKVX NSCLC): 27 nM
TGI (CAKI-1 renal): 232 nM
TGI (SK-MEL-28 melanoma): 31.1 nM
TGI (CCRF-CEM leukemia): 166 nM
TGI (KM20L2 colon): 310 nM
TGI (SK-OV-3 ovarian): 606 nM
TGI (A549 NSCLC): 91.8 nM
TGI (M19-MEL melanoma): 24.4 nM
TGI (RXF 393 renal): 21.1 nM
TGI (OVCAR-8 ovarian): 24.1 nM
TGI (SN12K1 renal): 22 nM
TGI (HOP-62 NSCLC): 41 nM
TGI (MOLT-4 leukemia): 533 nM
TGI (SK-MEL-2 melanoma): 36.1 nM
TGI (SNB-19 CNS): 33.5 nM
TGI (HOP-18 NSCLC): 1100 nM
TGI (SF-539 CNS): 37.2 nM
TGI (SNB-75 CNS): 66.7 nM
TGI (UACC-62 melanoma): 29.2 nM
TGI (HCT-15 colon): 97.9 nM
TGI (COLO 205 colon): 46.4 nM
TGI (XF 498 CNS): 35.1 nM
TGI (OVCAR-5 ovarian): 773 nM
TGI (MALME-3M melanoma): 22.9 nM
TGI (SN12C renal): 193 nM
TGI (P388/ADR leukemia): 278 nM
TGI (HT29 colon): 115 nM
TGI (DLD-1 colon): 28.7 nM
TGI (NCI-H226 lung): 29 nM
TGI (IGROV1 ovarian): 30.3 nM
TGI (HL-60(TB) leukemia): 200 nM
TGI (DMS 273 small cell lung): 96.4 nM
